Results on two compounds are retold here after patent US8029795B2, “Targeted iron chelator delivery system” (Gwathmey, Inc., priority 1999, dated 2011).

For data set [1] the following is noted: al-Refaie et al. 1992; cited from earlier work.
On the set-up of data set [2]: species or system Sprague Dawley rats. The following applies: rat, in vivo. The text has this: Sprague Dawley rats (n=130) were obtained from Charles River Laboratories and were iron overloaded by twelve week administration of iron in the feed. The rats were divided into the following groups: • (i) overloaded (O), • (ii) liposomes injected (OL), • (iii) overloaded animals with liposome entrapped desferrioxamine (OLD), and • (iv) overloaded with desferrioxamine (OD).
All control groups were pooled as there were not significant differences between the groups of normal non-treated controls. Range for iron was 35-150 μg/gram dry weight (human assay lab). A hepatic index of 1.0 is normal and results of 1.0-1.9 are described as nonspecific iron accumulation (human standards). […] FIGS. 4 and 5 show myocardial tissue from rat with iron overload.

The conditions of data set [3]: background statement; cited from earlier work.

For the compound `Cc1c(O)c(=O)ccn1C` [deferiprone], the “severe agranulocytosis, share of patients” value in data set [1] is on record as “about 2%”. `CC(=O)N(O)CCCCCNC(=O)CCC(=O)N(O)CCCCCNC(=O)CCC(=O)N(O)CCCCCN` [desferrioxamine]: the “toxic effects in control rats” value in data set [2] is “Neither liposomes nor desferrioxamine (DFO) had toxic effects”. In data set [3], the oral absorption entry is reported as “very low”.
